Patent US11576922B2, “CD73 inhibitors” (ORIC Pharmaceuticals, Inc., priority 2017, dated 2023)

biological target: T1, CD73 (Homo sapiens, UniProt P21589); assay: Example A1: Biochemical Assay (CD73 inhibition, Malachite Green detection of AMP hydrolysis); conditions: CD73 0.3208 nM, AMP 15 μM, Tris-HCl pH 7.4, Malachite Green, absorbance 620 nm; read-out: Biochemical IC50
T1 sequence (P21589 27-549): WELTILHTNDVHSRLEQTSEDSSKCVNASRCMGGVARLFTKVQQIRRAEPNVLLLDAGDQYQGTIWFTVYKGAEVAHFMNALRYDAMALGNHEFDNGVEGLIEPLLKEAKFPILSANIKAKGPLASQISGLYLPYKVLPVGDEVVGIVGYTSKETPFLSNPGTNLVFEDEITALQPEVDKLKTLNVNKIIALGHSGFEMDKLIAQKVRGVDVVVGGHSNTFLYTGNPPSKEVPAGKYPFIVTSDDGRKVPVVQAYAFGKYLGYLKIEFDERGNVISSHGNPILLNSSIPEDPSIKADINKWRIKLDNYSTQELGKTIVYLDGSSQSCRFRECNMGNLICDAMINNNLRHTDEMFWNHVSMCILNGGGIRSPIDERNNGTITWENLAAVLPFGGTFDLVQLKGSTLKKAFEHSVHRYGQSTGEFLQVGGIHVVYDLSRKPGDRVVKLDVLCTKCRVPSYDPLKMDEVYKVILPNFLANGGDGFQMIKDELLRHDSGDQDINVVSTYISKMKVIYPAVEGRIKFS
Experimental: Example A1: Biochemical Assay
Assay Reaction Conditions
• Assay Volume: 70 μl • Reaction Volume: 50 μl • CD73: 0.3208 nM • AMP: 15 μM • Assay Buffer: 2 5 mM Tris-HCL, pH 7.4, 0.01% Brij-35, 0.01% BSA, 5 mM MgCl2 Assay Procedure:
Made dose titration of testing compounds in assay buffer, 10 points ½ log titrations in duplicates starting at 100 μM.
Added 25 μl of CD73 to each well for a final concentration of […].
Incubated at RT for 15 min.
Added 25 μl of AMP to each well for a final concentration of 15 μM.
Incubated at RT for 10 min.
Added 10 μl of Malachite Green Reagent A, incubate at RT for 10 min.
Added 10 μl of Malachite Green Reagent B, incubate at RT for 45 min.
Read the Absorbance on Envision plate reader using excitation filter: Cy5 […].
The ability of the compounds disclosed herein to inhibit CD73 activity was quantified and the respective IC50 values were determined. Table 1 provides the biochemical IC50 values of compounds disclosed herein.

Which IC50 does the source give for `C[C@H](Nc1nc(Cl)nc2c1nnn2[C@@H]1O[C@H](COP(=O)(O)CP(=O)(O)O)[C@@H](O)[C@H]1O)c1ccccc1` [Example 8, (((((2R,3S,4R,5R)-5-(5-chloro-7-(((S)-1-phenylethyl)amino)-3H-[1,2,3]triazolo[4,5-d]pyrimidin-3-yl)-3,4-dihydroxytetrahydrofuran-2-yl)methoxy)(hydroxy)phosphoryl)methyl) phosphonic acid] here?
The IC50 was under 100 nM.

`C[C@H](Nc1nc(Cl)nc2c1nnn2[C@@H]1O[C@H](COP(=O)(O)CP(=O)(O)O)[C@@H](O)[C@H]1O)c1ccccc1Cl` [Example 9, (((((2R,3S,4R,5R)-5-(5-chloro-7-(((S)-1-(2-chlorophenyl)ethyl)amino)-3H-[1,2,3]triazolo[4,5-d]pyrimidin-3-yl)-3,4-dihydroxytetrahydrofuran-2-yl)methoxy)(hydroxy)phosphoryl)methyl) phosphonic acid] was tested. Which IC50 did it give?
The IC50 was under 100 nM.

`O=P(O)(O)CP(=O)(O)OC[C@H]1O[C@@H](n2nnc3c(N4CCCC[C@@H]4c4ccccc4)nc(Cl)nc32)[C@H](O)[C@@H]1O` [Example 10, (((((2R,3S,4R,5R)-5-(5-chloro-7-((R)-2-phenylpiperidin-1-yl)-3H-[1,2,3]triazolo[4,5-d]pyrimidin-3-yl)-3,4-dihydroxytetrahydrofuran-2-yl)methoxy)(hydroxy)phosphoryl)methyl) phosphonic acid] was tested. Which IC50 did it give?
Its IC50 is 100 to 1000 nM.

How did the IC50 turn out when `O=P(O)(O)CP(=O)(O)OC[C@H]1O[C@@H](n2nnc3c(N4CCC[C@H]4c4ccccc4)nc(Cl)nc32)[C@H](O)[C@@H]1O` [Example 11, (((((2R,3S,4R,5R)-5-(5-chloro-7-((S)-2-phenylpyrrolidin-1-yl)-3H-[1,2,3]triazolo[4,5-d]pyrimidin-3-yl)-3,4-dihydroxytetrahydrofuran-2-yl)methoxy)(hydroxy)phosphoryl)methyl) phosphonic acid] was run?
The IC50 was 100 to 1000 nM.

`C[C@@H](c1ccccc1Cl)N(C)c1nc(Cl)nc2c1nnn2[C@@H]1O[C@H](COP(=O)(O)CP(=O)(O)O)[C@@H](O)[C@H]1O` [Example 12, (((((2R,3S,4R,5R)-5-(5-chloro-7-(((S)-1-(2-chlorophenyl)ethyl)(methyl)amino)-3H-[1,2,3]triazolo[4,5-d]pyrimidin-3-yl)-3,4-dihydroxytetrahydrofuran-2-yl)methoxy)(hydroxy)phosphoryl)methyl) phosphonic acid] was tested. Which IC50 did it give?
The IC50 was under 100 nM.

How did the IC50 turn out when `C[C@@H](c1ccccc1)N(C)c1nc(Cl)nc2c1nnn2[C@@H]1O[C@H](COP(=O)(O)CP(=O)(O)O)[C@@H](O)[C@H]1O` [Example 13, (((((2R,3S,4R,5R)-5-(5-chloro-7-(methyl((S)-1-phenylethyl)amino)-3H-[1,2,3]triazolo[4,5-d]pyrimidin-3-yl)-3,4-dihydroxytetrahydrofuran-2-yl)methoxy)(hydroxy)phosphoryl)methyl) phosphonic acid] was run?
The IC50 was under 100 nM.

With `O=P(O)(O)CP(=O)(O)OC[C@H]1O[C@@H](n2nnc3c(NCc4cccc(Cl)c4)nc(Cl)nc32)[C@H](O)[C@@H]1O` [Example 14, (((((2R,3S,4R,5R)-5-(5-chloro-7-((3-chlorobenzyl)amino)-3H-[1,2,3]triazolo[4,5-d]pyrimidin-3-yl)-3,4-dihydroxytetrahydrofuran-2-yl)methoxy)(hydroxy)phosphoryl)methyl) phosphonic acid] as the compound, how does the IC50 read?
The IC50 was under 100 nM.

With `CN(Cc1ccccc1)c1nc(Cl)nc2c1nnn2[C@@H]1O[C@H](COP(=O)(O)CP(=O)(O)O)[C@@H](O)[C@H]1O` [Example 15, (((((2R,3S,4R,5R)-5-(7-(benzyl(methyl)amino)-5-chloro-3H-[1,2,3]triazolo[4,5-d]pyrimidin-3-yl)-3,4-dihydroxytetrahydrofuran-2-yl)methoxy)(hydroxy)phosphoryl)methyl) phosphonic acid] as the compound, how does the IC50 read?
Its IC50 is under 100 nM.

Which IC50 does the source give for `O=P(O)(O)CP(=O)(O)OC[C@H]1O[C@@H](n2nnc3c(N4CCCC[C@H]4c4ccccc4)nc(Cl)nc32)[C@H](O)[C@@H]1O` [Example 16, (((((2R,3S,4R,5R)-5-(5-chloro-7-((S)-2-phenylpiperidin-1-yl)-3H-[1,2,3]triazolo[4,5-d]pyrimidin-3-yl)-3,4-dihydroxytetrahydrofuran-2-yl)methoxy)(hydroxy)phosphoryl)methyl) phosphonic acid] here?
Its IC50 is under 100 nM.

With `O=P(O)(O)CP(=O)(O)OC[C@H]1O[C@@H](n2nnc3c(N4CCC[C@@H]4c4ccccc4)nc(Cl)nc32)[C@H](O)[C@@H]1O` [Example 17, (((((2R,3S,4R,5R)-5-(5-chloro-7-((R)-2-phenylpyrrolidin-1-yl)-3H-[1,2,3]triazolo[4,5-d]pyrimidin-3-yl)-3,4-dihydroxytetrahydrofuran-2-yl)methoxy)(hydroxy)phosphoryl)methyl) phosphonic acid] as the compound, how does the IC50 read?
Its IC50 is 100 to 1000 nM.

`CN(c1nc(Cl)nc2c1nnn2[C@@H]1O[C@H](COP(=O)(O)CP(=O)(O)O)[C@@H](O)[C@H]1O)[C@H]1CCc2ccccc21` [Example 18, (((((2R,3S,4R,5R)-5-(5-chloro-7-(((S)-2,3-dihydro-1H-inden-1-yl)(methyl)amino)-3H-[1,2,3]triazolo[4,5-d]pyrimidin-3-yl)-3,4-dihydroxytetrahydrofuran-2-yl)methoxy)(hydroxy)phosphoryl)methyl) phosphonic acid] was tested. Which IC50 did it give?
The IC50 was under 100 nM.

With `CN(c1nc(Cl)nc2c1nnn2[C@@H]1O[C@H](COP(=O)(O)CP(=O)(O)O)[C@@H](O)[C@H]1O)[C@@H]1CCc2ccccc21` [Example 19, (((((2R,3S,4R,5R)-5-(5-chloro-7-(((R)-2,3-dihydro-1H-inden-1-yl)(methyl)amino)-3H-[1,2,3]triazolo[4,5-d]pyrimidin-3-yl)-3,4-dihydroxytetrahydrofuran-2-yl)methoxy)(hydroxy)phosphoryl)methyl) phosphonic acid] as the compound, how does the IC50 read?
Its IC50 is under 100 nM.

Which IC50 does the source give for `O=P(O)(O)CP(=O)(O)OC[C@H]1O[C@@H](n2nnc3c(N[C@H]4CCc5ccccc54)nc(Cl)nc32)[C@H](O)[C@@H]1O` [Example 20, (((((2R,3S,4R,5R)-5-(5-chloro-7-(((S)-2,3-dihydro-1H-inden-1-yl)amino)-3H-[1,2,3]triazolo[4,5-d]pyrimidin-3-yl)-3,4-dihydroxytetrahydrofuran-2-yl)methoxy)(hydroxy)phosphoryl)methyl) phosphonic acid] here?
Its IC50 is under 100 nM.

For `CN(Cc1ccccc1Cl)c1nc(Cl)nc2c1nnn2[C@@H]1C[C@H](COP(=O)(O)CP(=O)(O)O)[C@@H](O)[C@H]1O` [Example 21, (((((1R,2R,3S,4R)-4-(5-chloro-7-((2-chlorobenzyl)(methyl)amino)-3H-[1,2,3]triazolo[4,5-d]pyrimidin-3-yl)-2,3-dihydroxycyclopentyl)methoxy)(hydroxy)phosphoryl)methyl)phosphonic acid], which IC50 is on record?
Its IC50 is under 100 nM.

For `CN(Cc1ccccc1)c1nc(Cl)nc2c1nnn2[C@@H]1O[C@H](COP(=O)(O)CP(=O)(O)O)C[C@H]1O` [Example 22, (((((2S,4R,5R)-5-(7-(benzyl(methyl)amino)-5-chloro-3H-[1,2,3]triazolo[4,5-d]pyrimidin-3-yl)-4-hydroxytetrahydrofuran-2-yl)methoxy)(hydroxy)phosphoryl)methyl)phosphonic acid], which IC50 is on record?
Its IC50 is 100 to 1000 nM.

For `O=P(O)(O)CP(=O)(O)OC[C@@H]1C[C@@H](O)[C@H](n2nnc3c(NCc4ccccc4Cl)nc(Cl)nc32)O1` [Example 23, (((((2S,4R,5R)-5-(5-chloro-7-((2-chlorobenzyl)amino)-3H-[1,2,3]triazolo[4,5-d]pyrimidin-3-yl)-4-hydroxytetrahydrofuran-2-yl)methoxy)(hydroxy)phosphoryl)methyl)phosphonic acid], which IC50 is on record?
The IC50 was under 100 nM.

For `COP(=O)(CP(=O)(O)O)OC[C@H]1O[C@@H](n2nnc3c(N(C)[C@H]4CCc5ccccc54)nc(Cl)nc32)[C@H](O)[C@@H]1O` (stereo partly drawn) [Example 24, (((((2R,3S,4R,5R)-5-(5-Chloro-7-(((S)-2,3-dihydro-1H-inden-1-yl)(methyl)amino)-3H-[1,2,3]triazolo[4,5-d]pyrimidin-3-yl)-3,4-dihydroxytetrahydrofuran-2-yl)methoxy)(methoxy)phosphoryl)methyl)phosphonic acid], which IC50 is on record?
The IC50 was under 100 nM.

`CCOP(=O)(CP(=O)(O)O)OC[C@H]1O[C@@H](n2nnc3c(NCc4ccccc4Cl)nc(Cl)nc32)[C@H](O)[C@@H]1O` (stereo partly drawn) [Example 25, (((((2R,3S,4R,5R)-5-(5-chloro-7-((2-chlorobenzyl)amino)-3H-[1,2,3]triazolo[4,5-d]pyrimidin-3-yl)-3,4-dihydroxytetrahydrofuran-2-yl)methoxy)(ethoxy)phosphoryl)methyl) phosphonic acid] was tested. Which IC50 did it give?
The IC50 was 100 to 1000 nM.
